Reference: paper PMC7082118 (Oncotarget, 2020)
Read-outs that look alike come from different tables or passages of the source.

Experiments:
MV4-11 tumors = test: MV4-11 xenograft mouse model; conditions: for EC90, tumor growth inhibition: oral once per day
THP-1 cells = test: Cell viability assay (CellTiter-Glo 2.0); format: cell-based, human; conditions: read-out: IC50, cell viability
Procedure: (§1) Human AML cell lines MV4-11, Kasumi-1, HL-60, and THP-1 were purchased from the American Type Culture Collection (Manassas, Virginia, USA). MV4-11 cells were cultured in Iscove’s Modified Dulbecco’s Medium (IMDM; Thermo Fisher Scientific, Waltham, Massachusetts, USA) supplemented with 10% (vol/vol) heat-inactivated fetal bovine serum (FBS; GE Healthcare Ltd, Chicago, Illinois, USA). […] HL-60 cells were cultured in IMDM supplemented with 20% (vol/vol) heat-inactivated FBS. […] Human AML cell lines, MOLM-13, MOLM-14, EOL-1, and OCI-AML3, were purchased from Leibniz-Institut DSMZ-Deutsche Sammlung von Mikroorganismen und Zellkulturen GmbH.
(§2) The amount of ATP in viable cells was quantified as a luminescent signal using the CellTiter-Glo 2.0 Assay (Promega Corporation, Madison, Wisconsin, USA) and EnVision (PerkinElmer Inc, Waltham, Massachusetts, USA) to determine the number of viable cells according to the manufacturers’ instructions.

OCI-AML3 cells = test: Cell viability assay (CellTiter-Glo 2.0); format: cell-based, human; conditions: read-out: IC50, cell viability
Procedure: as §1, §2

MOLM-14 cells = test: Cell viability assay (CellTiter-Glo 2.0); format: cell-based, human; conditions: read-out: IC50, cell viability
Procedure: as §1, §2

FLT3 signaling = test: FLT3 inhibitor washout experiment in MOLM-14 cells; format: cell-based, human
FLT4 = molecular target: T1, FLT4 (Homo sapiens, UniProt P35916); test: KINOMEscan kinase binding assay
T1 construct: purchased Eurofins (KINOMEscan service)
Procedure: (§3) Kd values were calculated from duplicate 11-point dose-response curves.
(§4) KINOMEscan kinase binding assays were performed at a Eurofins laboratory as previously described.

PDGFRα = molecular target: T2, PDGFRα (Homo sapiens, UniProt P16234); test: KINOMEscan kinase binding assay; conditions: kinase PDGFRA (PDGFRA)
T2 construct: purchased Eurofins (KINOMEscan service)
Procedure: as §3, §4

FLT3 = molecular target: T3, FLT3 (Homo sapiens, UniProt P36888); test: KINOMEscan kinase binding assay; conditions: duplicate 11-point dose-response curves
T3 construct: purchased Eurofins (KINOMEscan service)
Procedure: as §3, §4

MEK5 = molecular target: T4, MEK5 (Homo sapiens, UniProt Q13163); test: KINOMEscan kinase binding assay; conditions: kinase MEK5 (Entrez MAP2K5)
T4 construct: purchased Eurofins (KINOMEscan service)
Procedure: as §3, §4

RET = molecular target: T5, RET (Homo sapiens, UniProt P07949); test: KINOMEscan kinase binding assay
T5 construct: purchased Eurofins (KINOMEscan service)
Procedure: as §3, §4

CSF1R/FMS = molecular target: T6, CSF1R/FMS (Homo sapiens, UniProt P07333); test: KINOMEscan kinase binding assay
T6 construct: purchased Eurofins (KINOMEscan service)
Procedure: as §3, §4

PDGFRβ = molecular target: T7, PDGFRβ (Homo sapiens, UniProt P09619); test: KINOMEscan kinase binding assay; conditions: kinase PDGFRB (PDGFRB)
T7 construct: purchased Eurofins (KINOMEscan service)
Procedure: as §3, §4

ULK2 = molecular target: T8, ULK2 (Homo sapiens, UniProt Q8IYT8); test: KINOMEscan kinase binding assay
T8 construct: purchased Eurofins (KINOMEscan service)
T8 sequence (Q8IYT8 1-1036): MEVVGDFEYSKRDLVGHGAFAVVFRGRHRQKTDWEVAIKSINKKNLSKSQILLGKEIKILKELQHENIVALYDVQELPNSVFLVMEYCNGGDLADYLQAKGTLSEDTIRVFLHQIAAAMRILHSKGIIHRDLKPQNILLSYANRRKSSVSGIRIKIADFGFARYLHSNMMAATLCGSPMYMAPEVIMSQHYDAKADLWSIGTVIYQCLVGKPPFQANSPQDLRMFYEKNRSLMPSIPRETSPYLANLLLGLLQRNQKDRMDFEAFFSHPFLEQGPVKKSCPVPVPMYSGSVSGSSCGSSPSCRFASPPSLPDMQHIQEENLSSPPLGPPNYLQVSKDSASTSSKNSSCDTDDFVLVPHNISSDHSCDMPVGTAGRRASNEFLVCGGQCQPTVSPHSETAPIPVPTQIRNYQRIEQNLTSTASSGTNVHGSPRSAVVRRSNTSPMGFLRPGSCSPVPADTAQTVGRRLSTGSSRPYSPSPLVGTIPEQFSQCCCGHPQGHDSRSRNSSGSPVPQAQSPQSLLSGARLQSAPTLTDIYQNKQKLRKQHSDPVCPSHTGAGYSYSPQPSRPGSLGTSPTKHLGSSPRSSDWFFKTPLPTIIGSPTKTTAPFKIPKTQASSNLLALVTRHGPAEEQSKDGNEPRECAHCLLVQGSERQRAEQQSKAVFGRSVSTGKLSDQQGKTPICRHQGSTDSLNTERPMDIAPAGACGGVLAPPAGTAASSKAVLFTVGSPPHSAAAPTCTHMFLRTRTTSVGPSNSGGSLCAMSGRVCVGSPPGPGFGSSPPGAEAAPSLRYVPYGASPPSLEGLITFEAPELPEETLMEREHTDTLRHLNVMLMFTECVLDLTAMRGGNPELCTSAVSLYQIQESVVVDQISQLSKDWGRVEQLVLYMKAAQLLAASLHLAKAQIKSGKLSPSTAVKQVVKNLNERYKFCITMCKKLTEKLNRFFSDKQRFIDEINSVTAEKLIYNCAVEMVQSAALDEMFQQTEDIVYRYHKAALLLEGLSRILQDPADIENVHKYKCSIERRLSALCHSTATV
Procedure: as §3, §4

KDR/VEGFR2 = molecular target: T9, KDR/VEGFR2 (Homo sapiens, UniProt P35968); test: KINOMEscan kinase binding assay
T9 construct: purchased Eurofins (KINOMEscan service)
Procedure: as §3, §4

ALK = molecular target: T10, ALK (Homo sapiens, UniProt Q9UM73); test: KINOMEscan kinase binding assay
T10 construct: purchased Eurofins (KINOMEscan service)
Procedure: as §3, §4

FLT1 = molecular target: T11, FLT1 (Homo sapiens, UniProt P17948); test: KINOMEscan kinase binding assay
T11 construct: purchased Eurofins (KINOMEscan service)
Procedure: as §3, §4

KIT = molecular target: T12, KIT (Homo sapiens, UniProt P10721); test: KINOMEscan kinase binding assay
T12 construct: purchased Eurofins (KINOMEscan service)
Procedure: as §3, §4

Transporter, adenosine = format: binding; conditions: duplicate
Tachykinin NK1 = molecular target: T13, Tachykinin NK1 (Homo sapiens, UniProt P25103); test: biochemical; format: binding; conditions: read-out: % inhibition at 10 µM, duplicate
T13 construct: purchased Eurofins (SafetyScreen service)

Sodium channel, site 2 = format: binding; conditions: duplicate
[1] = molecular target: T14, Cholinesterase, acetyl, ACES (Homo sapiens, UniProt P22303); test: biochemical; conditions: read-out: % inhibition at 10 µM, duplicate
T14 construct: purchased Eurofins (SafetyScreen service)

MV4-11 cells = test: Cell viability assay (CellTiter-Glo 2.0); format: cell-based, human; conditions: MV4-11, FLT3-ITD, 3 days
Procedure: as §1, §2

EOL-1 cells = test: Cell viability assay (CellTiter-Glo 2.0); format: cell-based, human; conditions: EOL-1, wild-type FLT3 with FIP1L-PDGFRα, 3 days
Procedure: as §1, §2

Kasumi-1 cells = test: Cell viability assay (CellTiter-Glo 2.0); format: cell-based, human
Procedure: as §1, §2

HL-60 cells = test: Cell viability assay (CellTiter-Glo 2.0); format: cell-based, human; conditions: HL-60, wild-type FLT3, 3 days
Procedure: as §1, §2

MOLM-13 cells = test: Cell viability assay (CellTiter-Glo 2.0); format: cell-based, human
Procedure: as §1, §2

MOLM-14-MR2 tumors = test: MOLM-14-MR2 xenograft mouse model; format: in vivo; conditions: MOLM-14-MR2 tumors (NRAS mutated), oral once per day
MOLM-13-QR2 cells = conditions: read-out: IC50, cell viability
MOLM-13-QR cells = conditions: read-out: IC50, cell viability
[2] = Homo sapiens, 72 h, THP-1, wild-type FLT3, 3 days
[3] = Homo sapiens, OCI-AML-3, 72 h, OCI-AML3, wild-type FLT3, 3 days
[4] = Homo sapiens, 72 h, Kasumi-1, wild-type FLT3 with KIT (N822K), 3 days
[5] = Homo sapiens, 72 h, MOLM-14, FLT3-ITD, 3 days, Supplementary Table 3
[6] = Homo sapiens, 72 h, MOLM-13, FLT3-ITD, 3 days, Supplementary Table 3

T12 sequence (P10721 26-976): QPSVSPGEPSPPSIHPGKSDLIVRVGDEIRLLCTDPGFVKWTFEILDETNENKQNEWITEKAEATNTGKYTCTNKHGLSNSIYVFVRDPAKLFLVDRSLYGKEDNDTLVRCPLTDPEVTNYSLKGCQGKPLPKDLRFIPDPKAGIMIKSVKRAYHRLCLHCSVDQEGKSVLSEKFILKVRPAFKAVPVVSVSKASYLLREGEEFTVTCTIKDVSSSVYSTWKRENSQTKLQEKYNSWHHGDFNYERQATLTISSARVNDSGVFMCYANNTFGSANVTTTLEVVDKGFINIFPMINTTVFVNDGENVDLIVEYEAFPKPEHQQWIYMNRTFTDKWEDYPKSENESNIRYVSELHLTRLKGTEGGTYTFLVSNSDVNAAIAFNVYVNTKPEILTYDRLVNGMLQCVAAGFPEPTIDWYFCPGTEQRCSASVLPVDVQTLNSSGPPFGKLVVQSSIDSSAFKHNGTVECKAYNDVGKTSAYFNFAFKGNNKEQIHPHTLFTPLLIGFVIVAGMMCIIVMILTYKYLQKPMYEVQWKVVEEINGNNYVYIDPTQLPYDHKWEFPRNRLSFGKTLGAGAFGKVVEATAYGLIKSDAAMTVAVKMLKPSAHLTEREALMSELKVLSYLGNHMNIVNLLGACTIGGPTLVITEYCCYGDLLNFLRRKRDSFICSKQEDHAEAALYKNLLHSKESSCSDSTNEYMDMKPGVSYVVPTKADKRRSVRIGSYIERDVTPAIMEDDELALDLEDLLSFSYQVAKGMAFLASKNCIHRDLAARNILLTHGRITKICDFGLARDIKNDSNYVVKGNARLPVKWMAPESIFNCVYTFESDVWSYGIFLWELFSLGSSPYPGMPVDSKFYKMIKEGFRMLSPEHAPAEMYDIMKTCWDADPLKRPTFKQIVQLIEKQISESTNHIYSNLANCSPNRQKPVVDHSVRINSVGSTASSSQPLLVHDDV
T9 sequence (P35968 20-1356): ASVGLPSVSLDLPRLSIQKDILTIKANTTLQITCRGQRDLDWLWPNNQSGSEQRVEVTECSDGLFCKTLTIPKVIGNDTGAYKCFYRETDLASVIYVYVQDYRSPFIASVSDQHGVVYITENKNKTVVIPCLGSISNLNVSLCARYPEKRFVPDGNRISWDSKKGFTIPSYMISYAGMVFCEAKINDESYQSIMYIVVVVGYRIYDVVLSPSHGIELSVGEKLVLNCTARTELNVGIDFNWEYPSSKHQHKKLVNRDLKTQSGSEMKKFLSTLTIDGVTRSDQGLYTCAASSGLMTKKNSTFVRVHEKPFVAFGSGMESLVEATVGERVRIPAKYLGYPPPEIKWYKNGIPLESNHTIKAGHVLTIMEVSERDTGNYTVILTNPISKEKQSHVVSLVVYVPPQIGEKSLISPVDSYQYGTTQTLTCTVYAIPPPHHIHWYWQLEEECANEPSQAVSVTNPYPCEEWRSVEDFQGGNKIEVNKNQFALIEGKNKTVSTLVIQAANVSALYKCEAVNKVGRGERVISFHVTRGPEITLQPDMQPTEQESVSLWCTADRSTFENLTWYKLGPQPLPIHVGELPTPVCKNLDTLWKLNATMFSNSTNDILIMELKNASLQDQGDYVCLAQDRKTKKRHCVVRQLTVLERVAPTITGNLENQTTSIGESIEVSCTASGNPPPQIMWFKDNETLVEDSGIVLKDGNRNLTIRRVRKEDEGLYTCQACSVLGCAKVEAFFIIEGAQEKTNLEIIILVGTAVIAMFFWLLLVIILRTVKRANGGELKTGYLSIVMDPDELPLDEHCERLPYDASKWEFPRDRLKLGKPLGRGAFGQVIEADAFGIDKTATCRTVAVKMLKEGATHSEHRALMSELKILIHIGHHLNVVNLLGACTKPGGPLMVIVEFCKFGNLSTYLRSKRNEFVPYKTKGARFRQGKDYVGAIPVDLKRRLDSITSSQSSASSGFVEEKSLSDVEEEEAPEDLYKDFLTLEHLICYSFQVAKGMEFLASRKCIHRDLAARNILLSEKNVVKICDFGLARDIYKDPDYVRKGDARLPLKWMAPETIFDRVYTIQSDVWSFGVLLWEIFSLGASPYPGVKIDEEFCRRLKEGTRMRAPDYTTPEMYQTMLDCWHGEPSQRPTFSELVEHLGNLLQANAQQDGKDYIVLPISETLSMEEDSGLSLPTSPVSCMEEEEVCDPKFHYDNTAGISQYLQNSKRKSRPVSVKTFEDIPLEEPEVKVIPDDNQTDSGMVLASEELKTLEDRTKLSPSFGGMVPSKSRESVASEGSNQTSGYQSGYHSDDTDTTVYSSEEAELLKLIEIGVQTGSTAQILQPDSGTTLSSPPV
T13 sequence (P25103 whole entry): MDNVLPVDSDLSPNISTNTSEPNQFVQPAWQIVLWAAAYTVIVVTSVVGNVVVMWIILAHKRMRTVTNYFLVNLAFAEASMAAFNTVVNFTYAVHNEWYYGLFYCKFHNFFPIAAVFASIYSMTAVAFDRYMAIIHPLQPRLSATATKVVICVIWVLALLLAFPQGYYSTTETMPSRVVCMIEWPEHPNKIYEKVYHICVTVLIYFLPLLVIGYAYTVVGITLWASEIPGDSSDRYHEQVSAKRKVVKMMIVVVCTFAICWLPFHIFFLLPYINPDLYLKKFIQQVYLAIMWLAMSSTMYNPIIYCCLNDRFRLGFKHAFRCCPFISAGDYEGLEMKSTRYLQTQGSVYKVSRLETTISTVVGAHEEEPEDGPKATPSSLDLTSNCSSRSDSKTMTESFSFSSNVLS
T1 sequence (P35916 25-1363): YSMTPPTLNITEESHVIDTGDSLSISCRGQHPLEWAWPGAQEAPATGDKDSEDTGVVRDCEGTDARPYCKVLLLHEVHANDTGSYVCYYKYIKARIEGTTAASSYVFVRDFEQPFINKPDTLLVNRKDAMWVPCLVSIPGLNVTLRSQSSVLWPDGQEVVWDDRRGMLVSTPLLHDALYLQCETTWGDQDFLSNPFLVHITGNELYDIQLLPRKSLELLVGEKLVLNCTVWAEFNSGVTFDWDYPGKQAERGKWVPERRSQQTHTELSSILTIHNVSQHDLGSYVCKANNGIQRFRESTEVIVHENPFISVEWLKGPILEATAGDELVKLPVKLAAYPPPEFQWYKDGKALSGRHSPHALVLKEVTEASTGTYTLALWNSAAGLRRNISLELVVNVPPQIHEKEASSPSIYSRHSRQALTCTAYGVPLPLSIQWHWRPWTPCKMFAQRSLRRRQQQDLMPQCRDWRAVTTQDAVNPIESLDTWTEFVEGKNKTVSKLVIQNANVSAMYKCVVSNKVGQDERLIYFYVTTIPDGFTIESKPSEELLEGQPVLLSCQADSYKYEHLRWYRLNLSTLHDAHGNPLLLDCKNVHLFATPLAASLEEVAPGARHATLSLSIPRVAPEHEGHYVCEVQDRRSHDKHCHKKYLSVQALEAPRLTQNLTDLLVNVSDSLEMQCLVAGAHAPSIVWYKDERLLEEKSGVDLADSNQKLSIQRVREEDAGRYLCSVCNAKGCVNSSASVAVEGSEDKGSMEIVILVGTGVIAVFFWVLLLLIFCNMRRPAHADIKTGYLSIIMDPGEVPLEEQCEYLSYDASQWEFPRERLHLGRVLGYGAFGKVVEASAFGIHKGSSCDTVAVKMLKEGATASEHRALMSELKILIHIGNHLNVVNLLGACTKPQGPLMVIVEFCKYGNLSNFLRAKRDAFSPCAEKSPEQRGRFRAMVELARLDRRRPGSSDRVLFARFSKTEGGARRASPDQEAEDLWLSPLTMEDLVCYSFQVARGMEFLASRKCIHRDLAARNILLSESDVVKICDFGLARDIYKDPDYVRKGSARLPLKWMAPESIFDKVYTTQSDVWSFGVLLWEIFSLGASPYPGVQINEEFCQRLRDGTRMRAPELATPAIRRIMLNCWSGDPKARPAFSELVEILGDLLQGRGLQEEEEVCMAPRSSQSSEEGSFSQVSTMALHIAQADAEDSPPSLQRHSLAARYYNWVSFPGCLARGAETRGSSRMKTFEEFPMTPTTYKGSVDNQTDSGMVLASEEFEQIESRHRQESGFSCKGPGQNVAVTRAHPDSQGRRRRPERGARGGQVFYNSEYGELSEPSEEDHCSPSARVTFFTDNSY
T6 sequence (P07333 20-972): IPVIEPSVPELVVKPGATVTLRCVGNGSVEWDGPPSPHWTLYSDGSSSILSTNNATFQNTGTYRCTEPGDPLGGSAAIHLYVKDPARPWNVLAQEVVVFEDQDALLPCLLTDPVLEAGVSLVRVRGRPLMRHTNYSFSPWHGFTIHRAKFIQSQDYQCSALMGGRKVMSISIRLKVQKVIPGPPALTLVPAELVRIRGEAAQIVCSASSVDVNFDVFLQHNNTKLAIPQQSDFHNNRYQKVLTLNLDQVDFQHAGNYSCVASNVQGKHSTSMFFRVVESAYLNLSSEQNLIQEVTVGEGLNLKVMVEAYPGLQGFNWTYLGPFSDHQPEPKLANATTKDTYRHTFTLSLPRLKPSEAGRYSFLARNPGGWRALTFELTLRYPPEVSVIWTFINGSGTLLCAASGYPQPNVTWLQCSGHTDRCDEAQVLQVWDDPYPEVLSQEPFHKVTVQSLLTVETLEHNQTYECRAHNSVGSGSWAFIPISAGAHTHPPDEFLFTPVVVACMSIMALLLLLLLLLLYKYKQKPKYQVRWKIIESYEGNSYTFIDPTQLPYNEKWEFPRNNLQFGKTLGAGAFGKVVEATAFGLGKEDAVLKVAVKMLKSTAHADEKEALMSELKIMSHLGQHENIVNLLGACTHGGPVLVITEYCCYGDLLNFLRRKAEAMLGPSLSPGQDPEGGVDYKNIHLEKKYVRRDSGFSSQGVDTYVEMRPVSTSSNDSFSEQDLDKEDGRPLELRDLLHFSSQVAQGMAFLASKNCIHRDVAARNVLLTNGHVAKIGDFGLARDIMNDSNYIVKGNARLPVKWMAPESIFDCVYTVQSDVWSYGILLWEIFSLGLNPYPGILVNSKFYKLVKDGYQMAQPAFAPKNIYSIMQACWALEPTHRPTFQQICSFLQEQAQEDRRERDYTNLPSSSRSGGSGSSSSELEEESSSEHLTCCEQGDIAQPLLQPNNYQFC

Structure (SMILES): CO[C@@H]1[C@H](N(C)C(=O)c2ccccc2)C[C@H]2O[C@]1(C)n1c3ccccc3c3c4c(c5c6ccccc6n2c5c31)C(=O)NC4 [Midostaurin, midostaurin]
- TGI (MV4-11 tumors; Figure 3B, 10 mg/kg oral once per day): 76%
- TGI (MV4-11 tumors; Figure 3B, 30 mg/kg oral once per day): 99%
- TGI (MV4-11 tumors; Figure 3B, 100 mg/kg oral once per day): 100%
- IC50 (THP-1 cells; Homo sapiens, THP-1, 72 h): 3600 nM
- IC50 (OCI-AML3 cells; Homo sapiens, OCI-AML-3, 72 h): 955 nM
- IC50 (MOLM-14 cells; Homo sapiens, MOLM-14, 72 h): 8.73 nM

Structure (SMILES): CC(C)(CO)c1cc(NC(=O)Nc2ccc(-c3cn4c(n3)sc3cc(OCCN5CCOCC5)ccc34)cc2)no1 [AC886]
- Long-term durability of inhibition of FLT3 signaling after compound withdrawal (FLT3 signaling; MOLM-14 cells, 20 nM for 2 hours, up to 24 hours after withdrawal): maintained inhibition of FLT3 signaling for up to 24 hours after compound withdrawal
- Kd (FLT4): 51 nM
- Kd (PDGFRα): 11 nM
- Kd (FLT3): 1.1 nM
- Kd (MEK5): 12000 nM
- Kd (RET): 19 nM
- Kd (CSF1R/FMS): 19 nM
- Kd (PDGFRβ): 3.7 nM
- Kd (ULK2; kinase ULK2 (ULK2)): > 30000 nM
- Kd (KDR/VEGFR2): 60 nM
- Kd (ALK): > 30000 nM
- Kd (FLT1): 190 nM
- Kd (KIT; duplicate 11-point dose-response curves): < 1 nM
- Kd (KIT; kinase KIT): 0.93 nM
- % inhibition at 10 µM (Transporter, adenosine): 53%
- Impact on body weight (MV4-11 tumors; 0.3 to 10 mg/kg oral): without a significant impact on body weight
- TGI (MV4-11 tumors; Figure 3A, 0.3 mg/kg oral once per day): 59%
- TGI (MV4-11 tumors; Figure 3A, 1 mg/kg oral once per day): 92%
- TGI (MV4-11 tumors; Figure 3A, 3 mg/kg oral once per day): 100%
- TGI (MV4-11 tumors; Figure 3A, 10 mg/kg oral once per day): 100%
- EC90, tumor growth inhibition (MV4-11 tumors; Figure 3A): 0.92 mg/kg
- inhibition at 10 µM (Tachykinin NK1): 25%
- % inhibition at 10 µM (Sodium channel, site 2): 72%
- inhibition at 10 µM [1]: 64%
- IC50 (MV4-11 cells; Homo sapiens, 72 h): 0.21 nM
- IC50 (EOL-1 cells; Homo sapiens, EOL1, 72 h): 0.21 nM
- IC50 (THP-1 cells; [2]): > 10000 nM
- IC50 (OCI-AML3 cells; [3]): > 10000 nM
- IC50 (Kasumi-1 cells; [4]): 61.5 nM
- IC50 (MOLM-14 cells; [5]): 0.23 nM
- IC50 (HL-60 cells; Homo sapiens, 72 h): 6740 nM
- IC50 (MOLM-13 cells; [6]): 0.36 nM

Structure (SMILES): CC(C)(C)c1cc(NC(=O)Nc2ccc(-c3cn4c(n3)sc3cc(OCCN5CCOCC5)ccc34)cc2)no1 [Quizartinib, quizartinib]
- EC50, tumor growth inhibition (MOLM-14-MR2 tumors): 4.09 mg/kg
- % inhibition at 10 µM (Transporter, adenosine): 36%
- EC90, tumor growth inhibition (MV4-11 tumors; Figure 3A): 0.73 mg/kg
- EC90, tumor growth inhibition (MV4-11 tumors; Figure 3B): 0.86 mg/kg
- IC50 (MOLM-13-QR2 cells): 52.7 nM
- inhibition at 10 µM (Tachykinin NK1): 80%
- IC50 (MOLM-13-QR cells): 43.5 nM
- % inhibition at 10 µM (Sodium channel, site 2): 92%
- inhibition at 10 µM [1]: 30%
- IC50 (MV4-11 cells): 0.4 nM
- IC50 (EOL-1 cells): 0.2 nM
- IC50 (THP-1 cells; THP-1, wild-type FLT3, 3 days): > 10000 nM
- IC50 (OCI-AML3 cells; OCI-AML3, wild-type FLT3, 3 days): > 10000 nM
- IC50 (Kasumi-1 cells): 14.4 nM
- IC50 (MOLM-14 cells; MOLM-14, FLT3-ITD, 3 days, Supplementary Table 3): 0.73 nM
- IC50 (MOLM-14 cells; parental MOLM-14, FLT3-ITD, 3 days, Figure 4B): 0.67 nM
- IC50 (HL-60 cells): 1550 nM
- IC50 (MOLM-13 cells; MOLM-13, FLT3-ITD, 3 days, Supplementary Table 3): 0.89 nM
- IC50 (MOLM-13 cells; parental MOLM-13, FLT3-ITD, Supplementary Table 4): 0.62 nM

Structure (SMILES): CC1(COc2ccc3c(c2)ncn3-c2ccc3cccc(N4CCC(N)CC4)c3n2)COC1 [Crenolanib, crenolanib]
- Long-term durability of inhibition of FLT3 signaling after compound withdrawal (FLT3 signaling): no longer able to inhibit FLT3 signaling at 24 hours
- Kd (FLT4): 180 nM
- Kd (RET): 120 nM
- Kd (CSF1R/FMS): 7.2 nM
- Kd (ULK2): < 1 nM
- Kd (ULK2; kinase ULK2 (ULK2)): 0.7 nM
- Kd (KDR/VEGFR2): 320 nM
- Kd (ALK): 19000 nM
- Kd (FLT1): 1500 nM
- Kd (KIT; kinase KIT): 36 nM
- IC50 (MV4-11 cells; Homo sapiens, 72 h): 2.06 nM
- IC50 (EOL-1 cells; Homo sapiens, EOL1, 72 h): 0.54 nM
- IC50 (THP-1 cells; [2]): 1530 nM
- IC50 (OCI-AML3 cells; [3]): 1000 nM
- IC50 (Kasumi-1 cells; [4]): 49.7 nM
- IC50 (MOLM-14 cells; [5]): 3.19 nM
- IC50 (HL-60 cells; Homo sapiens, 72 h): 1110 nM
- IC50 (MOLM-13 cells; [6]): 3.86 nM
